# Results from ChEMBL document CHEMBL5260850, “The exploration of aza-quinolines as hematopoietic prostaglandin D synthase (H-PGDS) inhibitors with low brain exposure” (Bioorg Med Chem, 2020).
# Calls of active or inactive are those of the source. The rule behind the calls is not given here.
# Experiments:
# [1] = Toxicity in Wistar Han rat assessed as morphological changes in thymus at 30 mg/kg/day, po administered QD for 7 days by microscopic analysis; assay type: organism-based; conditions: in vivo, 168 h, time 7 day
# [2] = Toxicity in Wistar Han rat assessed as necrosis and inflammatory cell infiltrates in heart at 100 mg/kg/day, po administered QD for 7 days by microscopic analysis; assay type: organism-based; conditions: in vivo, 168 h, time 7 day
# [3] = Free AUC (0 to last) in mdx mouse administered orally 10 mins prior to unilateral eccentric contraction and QD for 43 days thereafter; assay type: ADME; conditions: in vivo, po, 1032 h, time 43 day
# [4] = target: Solute carrier organic anion transporter family member 1B1 (Homo sapiens, UniProt Q9Y6L6); assay: Inhibition of OATP1B1 (unknown origin) upto 10000 nM; conditions: 10 µM
# [5] = Free Cmax in mdx mouse administered orally 10 mins prior to unilateral eccentric contraction and QD for 43 days thereafter; assay type: ADME; conditions: in vivo, po, 1032 h, time 43 day
# [6] = test system: Mus musculus; assay: Anti-inflammatory activity against mdx mouse assessed as inhibition of muscle function loss by measuring functional recovery of injured limb muscles at 0.1 to 10 mg/kg, po administered 10 mins prior to unilateral eccentric contraction and QD for 43 days thereafter; set-up: scale not given: the % may be the effect or the level left; conditions: dose 0.1-10 mg/kg, time 43 day
# [7] = Genotoxicity in Salmonella typhimurium in presence of metabolic activation by Ames test; assay type: toxicity; conditions: salmonella enterica subsp. enterica serovar typhimurium
# [8] = Toxicity in Wistar Han rat assessed as seizure-like activity at 10 to 100 mg/kg/day, po QD for 7 days; assay type: organism-based; conditions: in vivo, 168 h, dose 10-100 mg/kg/day, time 7 day
# [9] = Selectivity ratio of EC50 for inhibition of H-PGDS in rat RBL cells assessed as reduction in A23187-induced PGD2 production to EC50 for anti-inflammatory activity against po dosed C57BL/6J mouse assessed as reduction in compound 48/80-induced PGD2 release into peritoneal lavage fluid
# [10] = Toxicity in Wistar Han rat assessed as animal death at 100 mg/kg/day, po administered QD for 7 days; assay type: organism-based; conditions: in vivo, 168 h, time 7 day
# [11] = target: Beta-2 adrenergic receptor (Homo sapiens) (UniProt P07550); conditions: dose <= 10000.0 nM
# Beta-2 adrenergic receptor (Homo sapiens), sequence (P07550 whole entry, looked up): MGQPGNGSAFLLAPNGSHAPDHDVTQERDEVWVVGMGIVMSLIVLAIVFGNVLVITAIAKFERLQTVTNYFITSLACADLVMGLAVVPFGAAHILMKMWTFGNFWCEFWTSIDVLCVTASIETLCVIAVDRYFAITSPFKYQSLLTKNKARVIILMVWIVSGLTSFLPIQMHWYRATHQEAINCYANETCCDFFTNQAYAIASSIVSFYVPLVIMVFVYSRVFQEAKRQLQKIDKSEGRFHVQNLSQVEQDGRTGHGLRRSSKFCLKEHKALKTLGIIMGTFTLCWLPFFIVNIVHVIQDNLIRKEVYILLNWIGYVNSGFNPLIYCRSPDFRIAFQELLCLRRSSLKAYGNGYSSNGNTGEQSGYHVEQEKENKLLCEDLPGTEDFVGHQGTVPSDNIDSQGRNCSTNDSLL
# Description: Inhibition of beta2 adrenergic receptor (unknown origin) upto 10000 nM
# [12] = Toxicity in dog assessed as decreased cortical lymphoid cellularity in thymus at 75 mg/kg/day, po QD for 4 days by microscopic analysis; assay type: organism-based, Canis lupus familiaris; conditions: in vivo, 96 h, time 4 day
# [13] = target: Prostaglandin G/H synthase 2 (Homo sapiens) (UniProt P35354); conditions: dose <= 10000.0 nM
# Prostaglandin G/H synthase 2 (Homo sapiens), sequence (P35354 whole entry): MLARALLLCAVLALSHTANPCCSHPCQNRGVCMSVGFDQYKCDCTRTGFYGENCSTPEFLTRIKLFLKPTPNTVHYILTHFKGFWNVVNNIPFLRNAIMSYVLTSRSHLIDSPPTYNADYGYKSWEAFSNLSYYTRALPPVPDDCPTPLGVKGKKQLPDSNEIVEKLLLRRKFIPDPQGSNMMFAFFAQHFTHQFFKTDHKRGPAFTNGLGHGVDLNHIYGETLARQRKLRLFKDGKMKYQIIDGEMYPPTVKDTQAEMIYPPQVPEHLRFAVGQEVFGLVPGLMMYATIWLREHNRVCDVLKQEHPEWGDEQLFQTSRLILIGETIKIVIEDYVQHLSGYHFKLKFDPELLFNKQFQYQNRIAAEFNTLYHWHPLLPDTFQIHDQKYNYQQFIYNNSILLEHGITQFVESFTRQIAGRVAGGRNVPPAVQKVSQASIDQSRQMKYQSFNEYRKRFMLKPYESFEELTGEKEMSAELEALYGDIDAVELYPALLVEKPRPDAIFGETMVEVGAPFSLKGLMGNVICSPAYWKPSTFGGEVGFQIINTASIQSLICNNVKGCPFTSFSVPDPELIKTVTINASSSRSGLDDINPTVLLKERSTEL
# Description: Inhibition of COX-2 (unknown origin) upto 10000 nM
# [14] = Toxicity in Wistar Han rat assessed as morphological changes in heart at 30 mg/kg/day, po administered QD for 7 days by microscopic analysis; assay type: organism-based; conditions: in vivo, 168 h, time 7 day
# [15] = Half life in mouse liver microsomes pretreated for 5 mins followed by incubation with NADP for 30 secs and measured upto 45 mins by LC-MS/MS analysis; assay type: ADME, Microsome; conditions: time 3030 sec
# [16] = Apparent permeability, Papp of the compound at pH 7.4 incubated for 3 hrs by AMP based liquid chromatography; assay type: ADME; conditions: not told
# [17] = Selectivity ratio of EC50 for inhibition of H-PGDS in rat RBL cells assessed as reduction in A23187-induced PGD2 production to EC50 for anti-inflammatory activity against po dosed C57BL6/N mouse assessed as reduction in LPS-induced PGD2 level in plasma
# [18] = Cmax in dog at 75 mg/kg/day, po QD for 4 days; assay type: ADME, organism-based, Canis lupus familiaris; set-up: dose 75 mg/kg/day, time 4 day, route po; conditions: in vivo
# [19] = target: Potassium voltage-gated channel subfamily KQT member 1 (Homo sapiens, UniProt P51787); assay: Inhibition of Kv7.1 channel (unknown origin) upto 10000 nM; conditions: 10 µM
# Potassium voltage-gated channel subfamily KQT member 1, sequence (P51787 whole entry): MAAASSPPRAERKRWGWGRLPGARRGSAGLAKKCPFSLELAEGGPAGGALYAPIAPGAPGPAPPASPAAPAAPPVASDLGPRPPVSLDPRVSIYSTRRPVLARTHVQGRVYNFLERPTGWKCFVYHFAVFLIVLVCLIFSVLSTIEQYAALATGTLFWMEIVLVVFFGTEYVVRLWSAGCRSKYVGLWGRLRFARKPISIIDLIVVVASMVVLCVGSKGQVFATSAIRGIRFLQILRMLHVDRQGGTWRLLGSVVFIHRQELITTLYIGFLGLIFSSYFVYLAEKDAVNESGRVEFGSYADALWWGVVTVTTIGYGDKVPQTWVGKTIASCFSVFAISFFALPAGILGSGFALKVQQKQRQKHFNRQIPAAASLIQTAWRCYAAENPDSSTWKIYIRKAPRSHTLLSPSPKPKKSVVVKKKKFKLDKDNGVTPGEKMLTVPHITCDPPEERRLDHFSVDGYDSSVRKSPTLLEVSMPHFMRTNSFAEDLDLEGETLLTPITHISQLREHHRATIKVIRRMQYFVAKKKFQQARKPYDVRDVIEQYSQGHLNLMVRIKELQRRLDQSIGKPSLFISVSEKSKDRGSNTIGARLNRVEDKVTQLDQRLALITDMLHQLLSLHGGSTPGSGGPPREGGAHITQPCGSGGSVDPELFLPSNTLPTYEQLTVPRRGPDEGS
# [20] = Toxicity in dog assessed as diffuse degenration/regeneration and multifocal erosion/ulcreation in small intestine and oesophagus at 75 mg/kg/day, po QD for 4 days by microscopic analysis; assay type: organism-based, Canis lupus familiaris; conditions: in vivo, 96 h, time 4 day
# [21] = target: Sodium-dependent serotonin transporter (Homo sapiens) (UniProt P31645); conditions: dose <= 10000.0 nM
# Sodium-dependent serotonin transporter (Homo sapiens), sequence (P31645 whole entry, looked up): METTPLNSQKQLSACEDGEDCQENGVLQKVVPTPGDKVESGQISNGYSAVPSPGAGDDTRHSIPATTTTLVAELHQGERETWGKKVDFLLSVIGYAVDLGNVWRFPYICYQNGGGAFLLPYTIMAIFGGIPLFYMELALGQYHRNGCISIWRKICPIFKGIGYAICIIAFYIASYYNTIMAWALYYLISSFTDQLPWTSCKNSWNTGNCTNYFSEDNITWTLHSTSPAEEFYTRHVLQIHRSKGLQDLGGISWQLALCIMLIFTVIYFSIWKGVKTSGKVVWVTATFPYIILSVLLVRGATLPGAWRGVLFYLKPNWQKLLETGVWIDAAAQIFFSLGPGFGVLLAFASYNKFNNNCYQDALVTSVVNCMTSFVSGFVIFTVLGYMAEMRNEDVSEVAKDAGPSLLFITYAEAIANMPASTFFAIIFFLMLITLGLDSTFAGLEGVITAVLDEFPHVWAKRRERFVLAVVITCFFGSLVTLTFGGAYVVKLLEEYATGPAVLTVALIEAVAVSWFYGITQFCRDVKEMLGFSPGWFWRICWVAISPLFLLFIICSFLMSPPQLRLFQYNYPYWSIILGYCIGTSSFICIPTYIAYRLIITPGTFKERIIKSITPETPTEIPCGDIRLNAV
# Description: Inhibition of SERT (unknown origin) upto 10000 nM
# [22] = Cmax in dog at 30 mg/kg/day, po QD for 4 days; assay type: ADME, organism-based, Canis lupus familiaris; set-up: time 4 day, dose 30 mg/kg/day, route po; conditions: in vivo
# [23] = target: Muscarinic acetylcholine receptor M1 (Homo sapiens) (UniProt P11229); conditions: dose <= 10000.0 nM
# Muscarinic acetylcholine receptor M1 (Homo sapiens), sequence (P11229 whole entry): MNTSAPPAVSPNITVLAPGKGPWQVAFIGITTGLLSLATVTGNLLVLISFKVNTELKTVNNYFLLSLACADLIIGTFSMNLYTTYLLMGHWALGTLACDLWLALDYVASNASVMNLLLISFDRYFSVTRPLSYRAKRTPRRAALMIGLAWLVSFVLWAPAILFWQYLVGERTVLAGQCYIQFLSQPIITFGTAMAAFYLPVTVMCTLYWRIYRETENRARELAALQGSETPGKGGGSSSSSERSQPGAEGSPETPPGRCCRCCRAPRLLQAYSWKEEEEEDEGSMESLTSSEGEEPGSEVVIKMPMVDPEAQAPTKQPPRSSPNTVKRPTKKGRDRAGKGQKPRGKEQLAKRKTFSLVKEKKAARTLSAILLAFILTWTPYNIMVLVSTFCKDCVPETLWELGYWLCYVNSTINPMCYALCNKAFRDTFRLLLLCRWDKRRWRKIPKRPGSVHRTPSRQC
# Description: Inhibition of muscarinic M1 receptor (unknown origin) upto 10000 nM
# [24] = target: Bile salt export pump (Homo sapiens, UniProt O95342); assay: Inhibition of BSEP (unknown origin) upto 10000 nM; conditions: 10 µM
# [25] = test system: Mus musculus; assay: Anti-inflammatory activity against C57BL6/N mouse assessed as EC50 required for reduction in LPS-induced PGD2 level in skeletal muscle administered orally with compound and 1 hr later treated with LPS and measured after 30 mins by LC-MS/MS analysis; assay type: functional, organism-based, C57BL/6N
# [26] = AUC in dog at 30 mg/kg/day, po QD for 4 days; assay type: ADME, organism-based, Canis lupus familiaris; set-up: dose 30 mg/kg/day, time 4 day, route po; conditions: in vivo
# [27] = target: D(2) dopamine receptor (Homo sapiens) (UniProt P14416); conditions: dose <= 10000.0 nM
# Description: Inhibition of dopamine D2 receptor (unknown origin) upto 10000 nM
# [28] = CNS toxicity in Wistar Han rat at 10 to 100 mg/kg/day, po QD for 7 days; assay type: organism-based; conditions: in vivo, 168 h, dose 10-100 mg/kg/day, time 7 day
# [29] = Inhibition of m-PGES (unknown origin); set-up: species or system Homo sapiens
# [30] = test system: Mus musculus; assay: Anti-inflammatory activity against mdx mouse assessed as inhibition of muscle function loss by measuring functional recovery of injured limb muscles administered orally 10 mins prior to unilateral eccentric contraction and QD for 43 days thereafter; conditions: 1032 h, route po, time 43 day
# [31] = Toxicity in C57BL/6N mouse assessed as seizures administered orally for 10 mins prior to unilateral eccentric contraction and QD for 16 days thereafter; conditions: in vivo, po, 384 h, time 16 day
# [32] = target: Alpha-1B adrenergic receptor (Homo sapiens) (UniProt P35368); conditions: dose <= 10000.0 nM
# Alpha-1B adrenergic receptor (Homo sapiens), sequence (P35368 whole entry): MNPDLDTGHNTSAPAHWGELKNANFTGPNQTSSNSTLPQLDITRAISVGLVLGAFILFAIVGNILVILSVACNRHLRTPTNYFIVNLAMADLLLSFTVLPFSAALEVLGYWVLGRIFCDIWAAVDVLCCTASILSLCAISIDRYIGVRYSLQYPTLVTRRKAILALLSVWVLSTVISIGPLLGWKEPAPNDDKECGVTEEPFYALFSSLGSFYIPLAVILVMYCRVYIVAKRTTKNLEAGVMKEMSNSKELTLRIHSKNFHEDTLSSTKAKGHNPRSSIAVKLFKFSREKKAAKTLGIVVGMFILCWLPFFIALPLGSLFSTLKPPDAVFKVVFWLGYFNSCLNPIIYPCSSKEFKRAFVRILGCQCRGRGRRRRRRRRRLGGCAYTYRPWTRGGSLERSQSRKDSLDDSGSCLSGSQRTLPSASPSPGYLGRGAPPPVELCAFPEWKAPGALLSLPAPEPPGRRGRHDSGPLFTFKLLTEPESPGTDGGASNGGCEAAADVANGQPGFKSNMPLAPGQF
# Description: Inhibition of alpha1B adrenergic receptor (unknown origin) upto 10000 nM
# [33] = target: D(1A) dopamine receptor (Homo sapiens) (UniProt P21728); conditions: dose <= 10000.0 nM
# Description: Inhibition of dopamine D1 receptor (unknown origin) upto 10000 nM
# [34] = target: Adenosine receptor A2a (Homo sapiens) (UniProt P29274); conditions: dose <= 10000.0 nM
# Adenosine receptor A2a (Homo sapiens), sequence (P29274 whole entry): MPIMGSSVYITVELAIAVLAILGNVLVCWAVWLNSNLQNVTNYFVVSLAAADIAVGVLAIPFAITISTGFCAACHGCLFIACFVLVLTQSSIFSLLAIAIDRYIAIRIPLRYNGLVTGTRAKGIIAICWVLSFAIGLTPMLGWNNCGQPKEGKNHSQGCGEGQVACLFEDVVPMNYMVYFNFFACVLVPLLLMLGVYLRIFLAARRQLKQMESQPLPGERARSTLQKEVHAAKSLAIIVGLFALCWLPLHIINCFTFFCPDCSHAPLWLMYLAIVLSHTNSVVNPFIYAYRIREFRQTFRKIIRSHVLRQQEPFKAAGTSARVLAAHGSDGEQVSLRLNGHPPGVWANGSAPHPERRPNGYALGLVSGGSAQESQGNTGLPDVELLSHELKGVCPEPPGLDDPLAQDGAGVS
# Description: Inhibition of adenosine A2A receptor (unknown origin) upto 10000 nM
# [35] = Cmax in Wistar Han rat at 10 mg/kg/day, po QD for 7 days; assay type: ADME, organism-based; set-up: time 7 day, dose 10 mg/kg/day, route po; conditions: in vivo
# [36] = target: GABA-A receptor; anion channel (Homo sapiens) (UniProt P14867+P47870+P18507+P28472+P48169+Q99928+Q9UN88+P34903+O00591+O14764+Q8N1C3+P18505+P78334+P47869+P31644+Q16445); conditions: dose <= 10000.0 nM
# Description: Inhibition of GABAA receptor (unknown origin) upto 10000 nM
# [37] = Toxicity in Wistar Han rat assessed as cortical hypertrophy in adrenal gland at 100 mg/kg/day, po administered QD for 7 days by microscopic analysis; assay type: organism-based; conditions: in vivo, 168 h, time 7 day
# [38] = target: Muscarinic acetylcholine receptor M2 (Homo sapiens) (UniProt P08172); conditions: dose <= 10000.0 nM
# Muscarinic acetylcholine receptor M2 (Homo sapiens), sequence (P08172 whole entry): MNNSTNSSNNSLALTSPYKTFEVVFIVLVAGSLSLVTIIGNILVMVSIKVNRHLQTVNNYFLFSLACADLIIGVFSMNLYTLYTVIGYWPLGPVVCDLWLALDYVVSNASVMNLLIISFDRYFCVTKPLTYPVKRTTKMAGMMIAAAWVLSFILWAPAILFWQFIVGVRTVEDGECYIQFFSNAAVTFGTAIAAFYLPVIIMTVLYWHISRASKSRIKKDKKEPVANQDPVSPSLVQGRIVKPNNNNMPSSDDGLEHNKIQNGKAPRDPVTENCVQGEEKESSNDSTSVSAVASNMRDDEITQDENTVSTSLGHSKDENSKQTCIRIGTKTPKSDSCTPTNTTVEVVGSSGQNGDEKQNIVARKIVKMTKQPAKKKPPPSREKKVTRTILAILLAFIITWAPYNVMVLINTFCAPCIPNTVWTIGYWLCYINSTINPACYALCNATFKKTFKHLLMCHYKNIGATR
# Description: Inhibition of muscarinic M2 receptor (unknown origin) upto 10000 nM
# [39] = target: 5-hydroxytryptamine receptor 2C (Homo sapiens) (UniProt P28335); conditions: dose <= 10000.0 nM
# 5-hydroxytryptamine receptor 2C (Homo sapiens), sequence (P28335 whole entry): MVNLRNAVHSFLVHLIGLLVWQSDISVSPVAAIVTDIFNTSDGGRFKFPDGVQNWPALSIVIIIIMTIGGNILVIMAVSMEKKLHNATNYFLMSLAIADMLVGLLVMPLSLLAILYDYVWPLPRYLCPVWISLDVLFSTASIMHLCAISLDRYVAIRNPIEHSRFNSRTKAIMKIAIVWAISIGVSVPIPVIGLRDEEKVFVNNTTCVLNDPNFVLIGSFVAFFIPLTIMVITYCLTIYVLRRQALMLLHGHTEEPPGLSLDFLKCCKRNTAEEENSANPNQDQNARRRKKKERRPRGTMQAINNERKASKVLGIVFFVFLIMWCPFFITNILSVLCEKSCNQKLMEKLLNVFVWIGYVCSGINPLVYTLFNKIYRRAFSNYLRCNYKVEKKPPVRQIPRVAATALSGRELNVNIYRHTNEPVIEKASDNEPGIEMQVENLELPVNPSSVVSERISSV
# Description: Inhibition of 5-HT2C receptor (unknown origin) upto 10000 nM
# [40] = Toxicity in dog assessed as tolerance upto 30 mg/kg/day, po QD for 4 days; assay type: organism-based, Canis lupus familiaris; conditions: in vivo, 96 h, time 4 day
structure (smiles),measurement,setting,value
CC(C)(O)[C@H]1CC[C@H](NC(=O)c2cnc3nc(C4CC4)ccc3c2)CC1,Activity,[1],Non-Toxic
same,Activity,[2],Toxic
same,fAUClast,[3],0.2 µg·h/mL
same,inhibition (INH),[4],Not Active
same,fCmax,[5],49 ng/mL
same,Activity,[6],90%
same,Activity,[7],Non-Toxic
same,Activity,[8],Non-Toxic
same,Ratio EC50,[9],10
same,Activity,[10],Toxic
same,inhibition,[11],inactive
same,Activity,[12],Toxic
same,inhibition,[13],inactive
same,Activity,[14],Non-Toxic
same,half-life,[15],> 3 h
same,Papp at 3 h,[16],4.4 ×10⁻⁶ cm/s
same,Ratio EC50,[17],10
same,Cmax,[18],210000 ng/mL
same,inhibition (INH),[19],Not Active
same,Activity,[20],Toxic
same,inhibition,[21],inactive
same,Cmax,[22],34000 ng/mL
same,inhibition,[23],inactive
same,inhibition (INH),[24],Not Active
same,EC50,[25],1.4 ng/g
same,AUC at 96 h,[26],430 µg·h/mL
same,inhibition,[27],inactive
same,Activity,[28],Non-Toxic
same,IC50,[29],> 100 µM
same,ED50,[30],1.1 mg/kg
same,Activity,[31],Non-Toxic
same,inhibition,[32],inactive
same,inhibition,[33],inactive
same,inhibition,[34],inactive
same,Cmax,[35],8700 ng/mL
same,inhibition,[36],inactive
same,Activity,[37],Toxic
same,inhibition,[38],inactive
same,inhibition,[39],inactive
same,Activity,[40],Non-Toxic
